{
  "source": "patent US9610299B2",
  "about": "“Compounds for the treatment of addiction” (Gilead Sciences, Inc., priority 2011, dated 2017)",
  "type_in_all_cases": "in vivo",
  "key": {"[1]": {"system": "male Sprague Dawley (SD) rats", "assay": "Rat cocaine cue reinstatement", "settings": "for inhibition of cocaine cue-induced reinstatement (lever presses): 1 hr before session, vs vehicle", "experimental": "Training of male Sprague Dawley (SD) rats had 3 separate stages. First, during self administration, animals were trained to lever press for cocaine with presentation of concomitant cues associated with drug delivery. Rats that reached criteria for addiction were included in the study. Afterward, during cue extinction, cocaine-cue dependent behavior was extinguished. Lastly, during cocaine cue reinstatement, the effect of compounds was tested on lever presses upon cue presentation (FIG. 2).\nRats were trained to self administer i.v. cocaine (0.35 mg/kg/injection) daily (Monday to Friday) in standard operant chambers with retractable levers (Coulbourn Instruments, PA). During the daily 2 hr session, rats received a 0.05 ml infusion of 0.35 mg/kg cocaine every time the active lever was pressed. A cue light and tone turned on for 2 sec together with activation of a pump that delivered the cocaine solution. Rats were required to maintain an infusion rate of ≧20+ per day for at least 10 days before being moved to extinction training.\nDuring extinction sessions lever presses no longer produced cocaine infusion and cue light/tone presentation was absent. Rats received a maximum of 15 extinction sessions.\nOn the next day after reaching extinction criteria, rats were treated orally with vehicle (Formulation 2B: 25% PEG400/5% Vit E TPGS/1% SLS/69% water with 0.5% Methocel) or drug (compound of Example 2 or compound of Example 5) before the cue reinstatement session. Cue reinstatement began with a tone and cue light. This 2 hr session was identical to the self-administration session (cue light and tone present upon active lever press) except that no cocaine was delivered. The number of active lever presses was compared to extinction lever responding. This is considered a measure of reinstatement. The next day, rats were returned to extinction sessions for at least 2 or 3 more sessions. Rats then received a second and last reinstatement session with an opposite treatment to the one received on the first reinstatement session (vehicle or drug treatment). […] The light/tone presentation triggers this response and it is interpreted as a measure of reinstatement even though cocaine is not available."}, "Male SD rats [2]": {"system": "Male SD rats", "assay": "Rat nicotine self administration, chronic treatment", "settings": "for inhibition of number of nicotine infusions: vs vehicle", "experimental": "Upon completion of the acute compound of Example 5 treatment study, the same animals were used to test the effect of 7-day chronic oral administration of compound of Example 5 in the nicotine self administration model. Rats were treated orally with compound of Example 5 (5, 10 or 30 mg-eq/kg) or vehicle 1 hr before nicotine self administration session for 7 consecutive days. […] Similar to the acute treatment, the 5 mg-eq/kg dose was ineffective (FIG. 7). […] Animals in nicotine self administration studies had to reach pre defined criteria (e.g. rat strain, minimum number of nicotine infusions, consistent baseline nicotine self administration throughout the study, patent iv catheters, etc.) to be included in analysis."}, "Male SD rats [3]": {"system": "Male SD rats", "assay": "Rat nicotine self administration, acute treatment", "settings": "for inhibition of number of nicotine infusions: vs vehicle", "experimental": "Male SD rats were trained to self administer i.v. nicotine (0.03 mg/kg/inj) daily (Monday to Friday) in standard operant chambers with retractable levers (MED Associates, Inc) as previously published (Levin et al., 2003; Levin et al., 2007). During the daily 45 min session, rats received 0.05 ml infusion of 0.03 mg/kg/infusion of nicotine every time the active lever was pressed. A cue light and tone turned on for 0.5 sec together with the activation of a pump that delivered the nicotine solution. Daily sessions were run for at least 10 days before the initiation of drug testing. Solutions of compounds of Example 2 and Example 5 were prepared fresh daily in Formulation 2B: 25% PEG400/5% Vit E TPGS/1% SLS/69% water with 0.5% Methocel) for oral dosing. Compound of Example 2 doses were administered in a counterbalanced design for testing 1 hr before each nicotine session. Every rat received all drug doses and vehicle in a randomly assigned order. The oral drug administrations were made twice per week.\nCompound of Example 5 was tested in a study using 4 independent groups. Each group received either oral vehicle or 1 of the 3 doses of compound of Example 5 (5, 10 or 30 mg-eq/kg). […] The 5 mg/kg dose was ineffective."}},
  "data": [
    {"compound": "O=C(NCc1ccc(-c2ccn(COP(=O)(O)O)c(=O)c2)cc1)c1c(Cl)cccc1Cl", "note": "[Compound 14, phosphoric acid mono-(4-{4-[(2,6-dichloro-benzoylamino)-methyl]-phenyl}-2-oxo-2H-pyridin-1-ylmethyl) ester]", "values": [
      {"measurement": "inhibition of cocaine cue-induced reinstatement (lever presses)", "setting": "[1]; 2.5 mg-eq/kg oral", "result": 30, "unit": "%"},
      {"measurement": "effect on cocaine cue reinstatement, in words", "setting": "[1]; 2.5 mg-eq/kg oral, lowest dose tested", "result": "not significantly different from vehicle"},
      {"measurement": "inhibition of cocaine cue-induced reinstatement (lever presses)", "setting": "[1]; 5 mg-eq/kg oral", "result": 59, "unit": "%"},
      {"measurement": "inhibition of cocaine cue-induced reinstatement (lever presses)", "setting": "[1]; 10 mg-eq/kg oral", "result": 55, "unit": "%"},
      {"measurement": "inhibition of cocaine cue-induced reinstatement (lever presses)", "setting": "[1]; 30 mg-eq/kg oral", "result": 50, "unit": "%"},
      {"measurement": "development of tolerance to the therapeutic effect", "setting": "Male SD rats [2]; 7-day chronic oral administration (data not shown)", "result": "no development of tolerance"},
      {"measurement": "effect on number of nicotine infusions, in words", "setting": "Male SD rats [2]; 7-day chronic oral, 5 mg-eq/kg", "result": "ineffective"},
      {"measurement": "inhibition of number of nicotine infusions", "setting": "Male SD rats [2]; 7-day chronic oral, 10 mg-eq/kg", "result": 48, "unit": "%"},
      {"measurement": "inhibition of number of nicotine infusions", "setting": "Male SD rats [2]; 7-day chronic oral, 30 mg-eq/kg", "result": 62, "unit": "%"},
      {"measurement": "effect on number of nicotine infusions, in words", "setting": "Male SD rats [3]; 5 mg-eq/kg oral, independent groups", "result": "ineffective"},
      {"measurement": "inhibition of number of nicotine infusions", "setting": "Male SD rats [3]; 10 mg-eq/kg oral, independent groups", "result": 51, "unit": "%"},
      {"measurement": "inhibition of number of nicotine infusions", "setting": "Male SD rats [3]; 30 mg-eq/kg oral, independent groups", "result": 68, "unit": "%"}
    ]},
    {"compound": "O=C(NCc1ccc(-c2cc[nH]c(=O)c2)cc1)c1c(Cl)cccc1Cl", "note": "[Compound 2, 2,6-dichloro-N-[4-(2-oxo-1,2-dihydro-pyridin-4-yl)-benzyl]-benzamide]", "values": [
      {"measurement": "effect on number of nicotine infusions, in words", "setting": "Male SD rats [3]; 1 mg/kg oral", "result": "without effect"},
      {"measurement": "effect on number of nicotine infusions, in words", "setting": "Male SD rats [3]; 5 mg/kg oral", "result": "without effect"}
    ]}
  ]
}
